Results from patent US11999727B2 (Tango Therapeutics, Inc., priority 2020, dated 2024).

Columns and labels:
[1] = tested on: MTAP-null SW1573 cancer cell line; test: Combination viability assay (CellTiter-Glo, 7 days), SW1573 MTAP-deleted cells; format: cell-based; details: 7-day viability assay, combination partner: exemplar MTAPnull-selective PRMT5 inhibitor
Protocol: A SW1573 MTAP-isogenic cell line pair was generated by either reconstituting MTAP gene expression, or by introducing an empty control vector, in the MTAP-deleted SW1573 parental cell line. The cell lines were maintained in DMEM+10% FBS in a humidified, 5% CO2 tissue culture incubator. All test compounds are maintained as 10 mM DMSO stocks.
On Day 0, MTAP-intact and MTAP-deleted cells are seeded in a 384-well plate, and incubated in a humidified, 5% CO2 tissue culture incubator for 16-24 hours. On Day 1, the test compounds are dispensed to wells at defined concentrations (n=2), and the volume of DMSO is normalized to highest class volume. The compound-treated plates are incubated for 7 days in a humidified, 5% CO2 tissue culture incubator.
On Day 7, the plates are removed from the tissue culture incubator and allowed to equilibrate to room temperature. Relative viability is assessed by addition of CellTiter-Glo reagent, and data are plotted as % of DMSO control for each compound in each cell line, with a 4-parameter fit non-linear regression model (GraphPad Prism). Synergy is determined according to the HSA model by the Combenefit software package (Version 2.021).

[2] = tested on: MTAP-null SW1573 cancer cell line; test: 7-day viability assay, combination with an exemplar MTAP-null-selective PRMT5 inhibitor, SW1573; format: cell-based; details: in combination with an exemplar MTAP-null-selective PRMT5 inhibitor
From the text: FIG. 3. Combination of AG-270, a MAT2A inhibitor effect is synergistic according to the HSA model, where the synergy score quantifies the excess of the highest single compound response

PRMT5 [3] = molecular target: T1, PRMT5 (Homo sapiens, UniProt O14744); test: PRMT5 biochemical IC50 assay with no cofactor; details: PRMT5, no cofactor; read-out: No Cofactor/ rel IC50
T1 construct: purchased Viva (custom protein)
T1 sequence (O14744 whole entry): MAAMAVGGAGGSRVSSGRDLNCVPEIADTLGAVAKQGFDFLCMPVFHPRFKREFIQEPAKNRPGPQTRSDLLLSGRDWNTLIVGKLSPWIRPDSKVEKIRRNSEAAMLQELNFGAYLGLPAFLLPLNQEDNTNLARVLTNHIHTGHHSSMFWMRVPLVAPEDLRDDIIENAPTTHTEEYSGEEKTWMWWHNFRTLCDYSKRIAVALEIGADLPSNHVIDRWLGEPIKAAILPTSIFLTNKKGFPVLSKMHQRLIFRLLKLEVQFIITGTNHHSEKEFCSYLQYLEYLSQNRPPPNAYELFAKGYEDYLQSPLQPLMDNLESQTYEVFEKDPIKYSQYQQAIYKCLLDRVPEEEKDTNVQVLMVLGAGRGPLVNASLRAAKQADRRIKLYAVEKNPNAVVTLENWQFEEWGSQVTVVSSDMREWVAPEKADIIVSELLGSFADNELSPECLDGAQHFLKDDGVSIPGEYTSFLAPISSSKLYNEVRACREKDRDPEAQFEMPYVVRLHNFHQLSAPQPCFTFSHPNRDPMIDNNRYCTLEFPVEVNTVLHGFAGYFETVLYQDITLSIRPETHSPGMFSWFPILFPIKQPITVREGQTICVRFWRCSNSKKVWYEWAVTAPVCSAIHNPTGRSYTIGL
T1 sequence (Q9BQA1 whole entry partner): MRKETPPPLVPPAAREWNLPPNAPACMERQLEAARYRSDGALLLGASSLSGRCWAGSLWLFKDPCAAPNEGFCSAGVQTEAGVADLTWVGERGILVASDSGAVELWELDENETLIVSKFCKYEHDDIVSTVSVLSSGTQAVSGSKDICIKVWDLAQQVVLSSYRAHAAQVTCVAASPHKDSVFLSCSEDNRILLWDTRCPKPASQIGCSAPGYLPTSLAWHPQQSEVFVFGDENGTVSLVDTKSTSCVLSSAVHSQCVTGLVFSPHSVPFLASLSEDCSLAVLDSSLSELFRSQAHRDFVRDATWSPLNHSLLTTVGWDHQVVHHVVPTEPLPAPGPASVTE
From the text: Table 1 indicates IC50 values (μM) against PRMT5 for exemplary compounds in the presence of SAM as cofactor, with no cofactor, and with MTA as cofactor, respectively (columns 4-6). […] Ki values can be calculated from the IC50 values as described in the Examples section. As detailed in the Examples section, for the assay performed in the presence of SAM, IC50=Ki×1.5 (Ki=IC50/1.5).

[4] = tested on: HAP1 MTAP-deleted cell line; test: Viability assay, MTAP-deleted cell line; format: cell-based; details: Homo sapiens, HAP1, viability, HAP1 MTAP-deleted cell line; read-out: HAP1 MTAP deleted viability
From the text: Table 1 additionally indicates IC50 values in a viability assay for the MTAP-deleted cell line (column 10), indicating the effect of treatment with compound on cell survival.

PRMT5 [5] = molecular target: T1, PRMT5; test: PRMT5 biochemical IC50 assay with MTA as cofactor; details: PRMT5, MTA as cofactor; read-out: MTA IC50
[6] = tested on: HAP1 MTAP-intact cell line; test: SDMA in-cell western assay, HAP1 MTAP-intact; format: cell-based; details: Homo sapiens, HAP1, SDMA in-cell western, HAP1 MTAP-intact; read-out: MTAP HAP1 intact IC50
Summary of the method: (§1)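 IC50 values come from SDMA signal quantified by in-cell western in two HAP1 lines, one with native MTAP levels and one lacking MTAP.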

PRMT5 [7] = molecular target: T1, PRMT5; test: PRMT5 biochemical IC50 assay with SAM as cofactor; details: PRMT5, SAM as cofactor; read-out: SAM IC50
[8] = tested on: HAP1 MTAP-deleted cell line; test: SDMA in-cell western assay, HAP1 MTAP-deleted; format: cell-based; details: for IC50: Homo sapiens, HAP1, SDMA in-cell western, HAP1 MTAP-deleted, read-out: HAP 1 MTAP deleted IC50; for MTAP intact/deleted ratio: IC50 ratio HAP1 MTAP-intact / HAP1 MTAP-deleted, SDMA in-cell western
Summary of the method: as §1

Structure (SMILES) | cellular viability, combination with an exemplar MTAP-null-selective PRMT5 inhibitor [1] | Effect of the combination on cellular viability [2] | IC50 (PRMT5 [3]) [nM] | IC50 [4] [nM] | IC50 (PRMT5 [5]) [nM] | IC50 [6] [nM] | IC50 (PRMT5 [7]) [nM] | IC50 [8] [nM] | MTAP intact/deleted ratio [8]
C=CC(=O)N1CCN(c2nc(=O)n(-c3c(C)ccnc3C(C)C)c3nc(-c4c(O)cccc4F)c(F)cc23)[C@@H](C)C1 [AMG-510] | enhanced cellular viability defects | enhanced cellular viability defects | – | – | – | – | – | – | –
CCc1cc(NC(=O)C(=O)N2C[C@@H](C)CC[C@@H]2c2cccc(OCCN3CCCC3)c2)cnc1N [Compound 1391, N-(6-amino-5-ethylpyridin-3-yl)-2-((2R,5)-5-methyl-2-(3-(2-(pyrrolidin-1-yl)ethoxy)phenyl)piperidin-1-yl)-2-oxoacetamide] | – | – | < 50 | < 1000 | < 50 | 100 to 1000 | < 50 | < 100 | A (an IC50 ratio greater than or equal to 10 fold)
CCc1cc(NC(=O)C(=O)N2[C@@H](c3ccc4sc(C5CCN(C)CC5)nc4c3)CCC[C@@H]2C)cnc1N [Compound 1395] | – | – | < 50 | < 1000 | < 50 | < 100 | 50 to 500 | < 100 | A (an IC50 ratio greater than or equal to 10 fold)
CCc1cc(NC(=O)C(=O)N2C[C@@H](C)CC[C@@H]2c2ccc3sc(CC4(N(C)C)COC4)nc3c2)cnc1N [Compound 1399, N-(6-amino-5-ethylpyridin-3-yl)-2-((2R,5S)-2-(2-((3-(dimethylamino)oxetan-3-yl)methyl)benzo[d]thiazol-5-yl)-5-methylpiperidin-1-yl)-2-oxoacetamide] | – | – | < 50 | < 1000 | < 50 | 100 to 1000 | 50 to 500 | < 100 | A (an IC50 ratio greater than or equal to 10 fold)
CCc1cc(NC(=O)C(=O)N2C[C@@H](C)CC[C@@H]2c2ccc(N3CCCC4(CCN(C)CC4)C3)cc2)cnc1N [Compound 1401, N-(6-Amino-5-ethyl-3-pyridyl)-2-[(2R,5S)-5-methyl-2-[4-(9-methyl-2,9-diazaspiro[5.5]undecan-2-yl)phenyl]-1-piperidyl]-2-oxo-acetamide] | – | – | < 50 | < 1000 | < 50 | 100 to 1000 | 50 to 500 | < 100 | A (an IC50 ratio greater than or equal to 10 fold)
CCc1cc(NC(=O)C(=O)N2C[C@@H](C)CC[C@@H]2c2ccc(CCN(C)C)c(Cl)c2)cnc1N [Compound 1402, N-(6-amino-5-ethylpyridin-3-yl)-2-((2R,5S)-2-(3-chloro-4-(2-(dimethylamino)ethyl)phenyl)-5-methylpiperidin-1-yl)-2-oxoacetamide] | – | – | < 50 | < 1000 | < 50 | 100 to 1000 | 50 to 500 | < 100 | A (an IC50 ratio greater than or equal to 10 fold)
CCc1cc(NC(=O)C(=O)N2C[C@@H](C)CC[C@@H]2c2ccc3sc(C45CC(N(C)C)(C4)C5)nc3c2)cnc1N [Compound 1404, N-(6-amino-5-ethylpyridin-3-yl)-2-((2R,5S)-2-(2-(3-(dimethylamino)bicyclo[1.1.1]pentan-1-yl)benzo[d]thiazol-5-yl)-5-methylpiperidin-1-yl)-2-oxoacetamide] | – | – | < 50 | < 1000 | < 50 | < 100 | < 50 | < 100 | A (an IC50 ratio greater than or equal to 10 fold)
O=C(Nc1ccc2[nH]nc(-c3ccncc3)c2c1)[C@@H]1CCN(CC(=O)N2CCN(c3ccc(-c4ncccn4)cc3)CC2)C1 [SCH772984] | enhanced cellular viability defects | enhanced cellular viability defect | – | – | – | – | – | – | –
CC(C)Nc1cc(-c2c[nH]c(C(=O)N[C@H](CO)c3cccc(Cl)c3)c2)c(Cl)cn1 [ulixertinib] | enhanced cellular viability defects | enhanced cellular viability defect | – | – | – | – | – | – | –
